Values of other authors, collected in US20240252571A1, “Hemp Essential Oil” (priority 2023, published 2024).
“Also recorded” adds a separate entry of the source. Where two headings read alike, the source gives them in different places. Where a SMILES comes first, the peptide text is derived from it.

What was measured:
SZ95 sebocytes [1] = test system: SZ95 sebocytes
SZ95 sebocytes [2] = details: for effect on the lipid synthesis-inhibitory (lipostatic) action of CBD: coapplication with CBD
mild AD = details: pediatric population
[3] = test system: Methicillin-resistant Staphylococcus epidermidis (MRSE)
Enterococcus faecalis = details: E. faecalis
[4] = test system: Methicillin-resistant Staphylococcus aureus (MRSA)
[5] = test system: Normal Human Epidermal Keratinocytes (NHEK); details: HMOX1 most upregulated
[6] = test system: intracellular calcium concentration of SZ95 sebocytes; details: for effect on the CBD-induced increase of [Ca2+]IC: with CBD
mice epidermis = details: topical application
Listeria monocytogenes = details: L. monocytogenes
[7] = in vitro diffusion, human tissue
[8] = test system: ionic currents of SZ95 sebocytes; details: CBD 10 μM, voltage ramp, -90 and +90 mV
human sebaceous glands = details: ex vivo hSOC
[9] = test system: allergic contact dermatitis model; details: experimental allergic contact dermatitis model
[10] = test system: Human dermal fibroblasts (HDFs); details: compared with vitamin C
[11] = CBD 1-10% gel, monoarthritic rat; plasma concentration linear with dose
[12] = test system: TNFA, IL1B and IL6 expression in human sebocytes
[13] = ethosomal carriers, murine model
human skin equivalents = details: compared with CBD
[14] = test system: Interleukin-1β, -6, -8, tumor necrosis factor α release; details: inducers UVA, UVB, chemical, C. acnes
itching = details: murine models
[15] = lower CBD concentrations, 1-100 nM

## CCCCC/C=C\C/C=C\C/C=C\C/C=C\CCCC(=O)NCCO [AEA, N-arachidonoyl ethanolamide]
SZ95 sebocytes [1]; higher levels
  apoptosis of human sebocytes: induces apoptosis
SZ95 sebocytes [2]; low concentrations
  lipid production in human sebocytes: stimulate lipid production

## Cc1c(C(=O)NN2CCCCC2)nn(-c2ccc(Cl)cc2Cl)c1-c1ccc(I)cc1 [AM251]
SZ95 sebocytes [2]
  effect on the lipid synthesis-inhibitory (lipostatic) action of CBD: neither CB1- nor CB2-specific antagonists (AM251 and AM630) were able to antagonize

## COc1ccc(C(=O)c2c(C)n(CCN3CCOCC3)c3cc(I)ccc23)cc1 [AM630]
SZ95 sebocytes [2]
  effect on the lipid synthesis-inhibitory (lipostatic) action of CBD: neither CB1- nor CB2-specific antagonists (AM251 and AM630) were able to antagonize

## O=C(CCCCCCCC(=O)NCCO)NCCO [Adelmidrol]
Mild AD
  efficacy in mild AD: effective in treating mild AD

## CC[C@H](C)[C@H](N)C1=N[C@H](C(=O)N[C@@H](CC(C)C)C(=O)N[C@H](CCC(=O)O)C(=O)N[C@H](C(=O)N[C@H]2CCCCNC(=O)[C@H](CC(N)=O)NC(=O)[C@@H](CC(=O)O)NC(=O)[C@H](Cc3cnc[nH]3)NC(=O)[C@@H](Cc3ccccc3)NC(=O)[C@H]([C@@H](C)CC)NC(=O)[C@@H](CCCN)NC2=O)[C@@H](C)CC)CS1 [BAC, Bacitracin] (HELM PEPTIDE1{[CC[C@H](C)[C@H](N)C1=N[C@H](C(=O)[*:2])CS1].L.[dE].I.K.[NCCC[C@@H](N[*:1])C(=O)[*:2]].I.[dF].H.[dD].N}$PEPTIDE1,PEPTIDE1,5:R3-11:R2$$$V2.0)
[3]; combined with ½ MIC of C3D
  reduction of MIC of BAC versus BAC alone: ≥ 64 fold
Enterococcus faecalis; combined with ½ MIC of C3D
  reduction of MIC of BAC versus BAC alone: ≥ 64 fold
[4]; MRSA, combined with ½ MIC of C3D
  reduction of MIC of BAC versus BAC alone: ≥ 64 fold

## C=C(C)[C@@H]1CCC(C)=C[C@H]1c1c(O)cc(CCCCC)cc1O [CBD, cannabidiol]
[5]
  expression of NRF2 target genes: induced the expression of several NRF2 target genes
[6]
  intracellular calcium concentration ([Ca2+]IC): significantly increased
Mice epidermis
  levels of HMOX1 and expression of keratins 16 and 17: increased
[3]
  Minimum Inhibitory Concentration (MIC): 8 µg/mL
Listeria monocytogenes
  Minimum Inhibitory Concentration (MIC): 4 µg/mL
[7]
  permeation: demonstrated CBD's permeation potential
Enterococcus faecalis
  Minimum Inhibitory Concentration (MIC): 8 µg/mL
[8]
  membrane currents: induced a mostly outwardly rectifying current and a positive shift in the reversal potential
SZ95 sebocytes [1]; 10 μM CBD, elongated application, 6-day treatments
  cell number: decreased; also recorded: reduced
SZ95 sebocytes [1]; 50 μM CBD
  cytotoxicity: evoked apoptosis-driven cytotoxicity
SZ95 sebocytes [1]; CBD 1-10 μM
  cellular viability, apoptosis, necrosis: did not decrease cellular viability or induce either apoptosis or necrosis
  proliferation of SZ95 sebocytes: significantly reduce
Human sebaceous glands
  basal lipogenesis in situ: decreased basal lipogenesis
  expression of the proliferation marker MKI67: markedly suppressed
  lipogenic action of AEA in situ: completely prevented
Human keratinocytes
  peroxide-induced reduction of polyunsaturated fatty acids in the cell membrane: protective effect
Human keratinocytes; UVB irradiation and hydrogen peroxide
  oxidative stress response: balance the oxidative stress response
[4]
  activity against a variety of MRSA strains: potent activity
[4]; MRSA
  Minimum Inhibitory Concentration (MIC): 4 µg/mL
[9]
  anti-inflammatory properties: exhibit anti-inflammatory properties
[10]
  reactive oxygen species levels: reduce reactive oxygen species levels in HDFs better than vitamin C
[11]
  absorption after topical application: well-absorbed
SZ95 sebocytes [2]
  lipid synthesis induced by arachidonic acid (AA): effectively inhibited
  lipid synthesis induced by the combination of linoleic acid and testosterone (LA-T): effectively inhibited
SZ95 sebocytes [2]; 10 μM CBD, 6-day treatments
  lipogenesis: decreased
SZ95 sebocytes [2]; 50 μM CBD
  lipogenesis: decreased lipogenesis
SZ95 sebocytes [2]; CBD 1-10 μM, 24-hour treatment
  basal neutral (sebaceous) lipid synthesis: neither semiquantitative Oil Red O nor quantitative Nile Red staining indicated changes; also recorded: no changes
SZ95 sebocytes [2]; CBD 1-10 μM, dose-dependent
  inhibition of the lipogenic action of AEA: markedly inhibited; also recorded: quell the lipogenic actions in a dose-dependent manner
SZ95 sebocytes [2]; acne-like conditions with AA
  AA-enhanced "pathological" lipogenesis (lipidome): almost completely normalized
SZ95 sebocytes [2]; listed as CDI
  lipid synthesis induced by arachidonic acid (AA): inhibit extraneous lipid synthesis
  lipid synthesis induced by the combination of linoleic acid and testosterone (LA-T): inhibit extraneous lipid synthesis
SZ95 sebocytes [2]; [15]
  AA-induced lipid synthesis: did not influence
  basal lipid synthesis: did not influence
[12]; LPS-induced
  IL1B expression: normalize
  IL6 expression: normalize
[12]; induced by TLR2 activator lipoteichoic acid (LTA)
  elevation of TNFA expression: completely prevented
[12]; induced by TLR4 activator LPS
  elevation of TNFA expression: completely prevented
[12]; induced by pro-acne LA-T combination
  elevation of TNFA expression: prevent
[13]
  transdermal delivery: successful transdermal delivery

## CCCCCc1cc(O)c(C/C=C(\C)CCC=C(C)C)c(O)c1 [CBG, cannabigerol]
[4]
  activity against a variety of MRSA strains: potent activity
Human skin equivalents
  genes regulated: regulates more genes than CBD
[10]
  reactive oxygen species levels: reduce reactive oxygen species levels in HDFs better than vitamin C
[14]
  pro-inflammatory cytokine release: inhibits

## Cc1c(C(=O)Nc2cccc(C(F)(F)F)c2)cc(-c2ccccc2)n1CCCN1CCOCC1 [HC067047]
[6]
  effect on the CBD-induced increase of [Ca2+]IC: antagonized
SZ95 sebocytes [2]; TRPV4 antagonist alone
  basal lipid synthesis: did not affect basal lipid synthesis
SZ95 sebocytes [2]
  effect on the lipid synthesis-inhibitory (lipostatic) action of CBD: prevented

## CCCCCCCCCCCCCCCC(=O)NCCO [PEA]
itching
  itching: reduce itching

## CCCCCc1cc(O)c2c(c1)OC(C)(C)[C@@H]1CCC(C)=C[C@@H]21 [THC, tetrahydrocannabinol]
itching
  itching: reduce itching

## COc1cc(CNC(=O)CCCC/C=C/C(C)C)ccc1O [capsaicin]
SZ95 sebocytes [2]
  lipostatic action by activation of TRPV1: potent lipostatic actions

## N.N.N.N.N.N.N.N.N.N.N.N.N.N.[Cl-].[Cl-].[Cl-].[Cl-].[Cl-].[Cl-].[O-2].[O-2].[Ru+3].[Ru+3].[Ru+4] [ruthenium red]
[6]
  effect on the CBD-induced increase of [Ca2+]IC: antagonized
